# Residues, ends and D or L forms follow the SMILES beside them. *: point of attachment. Cbz = O=C(OCc1ccccc1)*
# Columns and labels:
# grp78 = grp78 expression in the ER fraction, ER stress; format: cell-based
# Description: (§1) Cells were treated with A23187 (Sigma) or Brefeldin A (Sigma).
# (§2) Isolation of the ER fraction: Cells were washed with PBS, lysed in homogenization buffer (50 mM Tris-HCl, pH 8.0, 1 mM b-mercaptoethanol, 1 mM EDTA, 0.32 M sucrose and 0.1 mM PMSF), and then centrifuged at 5,000×g for 10 minutes. The supernatant was collected and centrifuged at 105,000×g for 1 hour. […] The resulting supernatant was used as the ER fraction.
# c-Abl [1] = test: c-Abl levels in the ER fraction, ER stress; format: cell-based
# Description: as §1, §2
# MEFs = test: Apoptosis by sub-G1 DNA in MEFs under ER stress; format: cell-based, mouse
# Description: Apoptosis assays: DNA content was assessed by staining ethanol-fixed cells with propidium iodide and monitoring by FACScan (Becton-Dickinson).
# c-Abl [2] = test: c-Abl levels in cytoplasmic and nuclear fractions, ER stress; format: cell-based
# Excerpt: (§3) Isolation of cytoplasmic and nuclear fractions: The cytoplasmic and nuclear fractions were isolated as described in Example 1.
# cytochrome c = test: Cytochrome c release in MEFs under ER stress; format: cell-based, mouse; conditions: wild-type MEFs
# Description: as §1, §3
# c-Abl [3] = test: Mitochondrial c-Abl kinase activity, GST-Crk(120-225) phosphorylation, ER stress; format: cell-based; conditions: anti-c-Abl immunoprecipitates of mitochondrial fraction
# Description: (§4) The supernatant was collected and centrifuged at 10,000×g for 10 minutes. […] Protein concentration was determined by the Bio-Rad protein estimation kit.
# Analysis of c-Abl activity: Cell lysates were prepared as described in Example 1 and subjected to immunoprecipitation with anti-c-Abl (K-12; Santa Cruz). The immunoprecipitates were resuspended in kinase buffer (see Example 1) containing […] of [g-32P]ATP and GST-Crk(120-225) or GST-Crk(120-212) for 15 minutes at 30° C. The reaction products were analyzed by SDS-PAGE and autoradiography.
# c-Abl [4] = test: c-Abl targeting to mitochondria under ER stress, immunofluorescence and immunoblot; format: cell-based
# Description: as §1
# Digital confocal immunofluorescence microscope: Cells grown on poly-D-lysine coated glass coverslips were fixed (3.7% formaldehyde in PBS, pH 7.4; 10 minutes), permeabilized (0.2% Triton X-100; 10 min), blocked for 30 minutes in media containing serum. After rinsing with PBS, immunostaining was performed by incubating the cells with 50 ng/slide of anti-c-Abl (K-12 rabbit polyclonal; Santa Cruz) and anti-grp-78 (C-20 goat polyclonal; Santa Cruz). For c-Abl and calreticulin staining, cells were incubated first with anti-c-Abl alone for 1 hour followed by blocking for 30 minutes in media containing serum. After washing with PBS, cells were then incubated with anti-calreticulin (rabbit polyclonal; StressGen). Finally, cells were incubated with a 1:250 dilution of CY-3 or Fluorescein (FITC)-conjugated anti-rabbit or anti-goat secondary antibodies (Jackson ImmunoResearch) for 1 hour. Mitochondria were stained with 0.006 ng/slide Mitotracker Green FM (Molecular Probes). Nuclei were stained with 4,6-diamino-2-phenylindole (DAPI; 1 mg/ml in PBS). Coverslips were mounted onto slides with 0.1 M Tris (pH 7.0) in 50% glycerol. Cells were visualized by digital confocal immunofluorescence and images were captured with cooled CCD camera mounted on a Zeiss Axioplan 2 microscope. Images were deconvolved using Slidebook software (Intelligent Imaging Innovations, Inc., Denver, Colo.).
# as §4
# 26S proteosome = test: In vitro Ub-proteosome system, degradation of catalase; format: biochemical
# Excerpt: As a control, degradation was inhibited when [g-S]ATP was substituted for ATP to prevent ubiquitination. […] Lactacystin, another proteosome inhibitor, was used to assess degradation of catalase in cells.
Structure (SMILES),expression of grp78 (grp78),c-Abl levels in the ER fraction (c-Abl [1]),induction of apoptosis (MEFs; c-Abl−/− cells),"apoptosis, sub-G1 DNA (MEFs; wild-type cells)",c-Abl levels in the cytoplasm or nucleus (c-Abl [2]),release of cytochrome c (cytochrome c),mitochondrial c-Abl activity (c-Abl [3]),"translocation of c-Abl to mitochondria, intracellular fluorescence (c-Abl [4]; anti-c-Abl and Mitotracker signals)","c-Abl protein in the mitochondrial fraction, immunoblot (c-Abl [4]; mitochondrial fraction)",degradation of catalase (26S proteosome)
CNc1ccc2oc(C[C@H]3O[C@@]4(CC[C@H]3C)O[C@H]([C@H](C)C(=O)c3ccc[nH]3)[C@H](C)C[C@H]4C)nc2c1C(=O)O [A23187],increases in expression of grp78,time-dependent decrease,little effect,induction of sub-G1 DNA,little if any effect,induces the release of cytochrome c,increases in mitochondrial c-Abl activity,translocation of c-Abl to mitochondria,time-dependent increase,
CC(C)C[C@@H](C=O)NC(=O)[C@H](CC(C)C)NC(=O)[C@H](CC(C)C)NC(=O)OCc1ccccc1 [MG132] (Cbz-Leu-Leu-Leu-aldehyde),,,,,,,,,,blocked
